According to article PMC8294059, “Identification and Immune Assessment of T Cell Epitopes in Five Plasmodium falciparum Blood Stage Antigens to Facilitate Vaccine Candidate Selection and Optimization” (Frontiers in Immunology, 2021):
Where a SMILES comes first, the peptide text is derived from it.

The compounds below were run against HLA-A*0201 (Homo sapiens, UniProt P04439, D140Y/D185E/D98H/E176V/E277Q/G131W/G231S/I119V/I121R/I166T/I218V/L300P/L318F/N151K/N90K/P208A/P217A/Q86G/Q94H/R138H/R169H/T345S) (assay: In vitro class I HLA binding assay (fluorescence polarization competition)). Details: allele A*0201; cell-free competition, fluorescence polarization at 72 hours; Non-binder = no dose-dependent inhibition; read-out: IC50.
Method: A cell-free class I HLA binding assay that allows for in vitro quantification of peptide-HLA binding affinity in a competition format was used. In this assay, a fluorescently labeled, high binding, control peptide is loaded onto 384-well ½-area plates along with unlabeled experimental peptides. To remove endogenous peptides and render the HLA A and B molecules receptive to binding, HLA is heated at 53°C for 15 minutes and immediately added to the assay. The mixture is then allowed to stand for three days. Once the mixture has reached steady equilibrium (at 72 hours), displacement of the high binding control peptide is measured through fluorescence polarization. Binding of experimental peptides is expressed as the percent inhibition of the labeled control peptide (experimental fluorescence / control fluorescence, multiplied by 100). The percent inhibition values for each experimental peptide (across a range of molar concentrations) are used to calculate the concentration which inhibits 50% of the labeled control peptide’s specific binding. This value is referred to as the peptide’s IC50.

Compound | IC50 [nM]
CC[C@H](C)[C@H](NC(=O)[C@H](CO)NC(=O)[C@H](CCCCN)NC(=O)[C@H](Cc1ccccc1)NC(=O)[C@H](CCC(=O)O)NC(=O)[C@H](CO)NC(=O)[C@H](Cc1ccc(O)cc1)NC(=O)[C@H](CCSC)NC(=O)[C@@H](N)CCCCN)C(=O)O [EBA175_0697] (H-KMYSEFKSI-OH) | 1020
CC(C)C[C@H](NC(=O)[C@H](CC(N)=O)NC(=O)[C@H](CC(=O)O)NC(=O)[C@@H](NC(=O)[C@@H](NC(=O)[C@H](CCC(=O)O)NC(=O)[C@H](Cc1ccccc1)NC(=O)[C@H](CC(C)C)NC(=O)[C@@H](N)Cc1ccccc1)C(C)C)[C@@H](C)O)C(=O)O [EBA175_1461] (H-FLFEVTDNL-OH) | 269
CC[C@H](C)[C@H](NC(=O)[C@H](CC(C)C)NC(=O)[C@@H](N)CO)C(=O)N[C@@H](CCCCN)C(=O)N[C@@H](CCC(N)=O)C(=O)N[C@@H](CC(N)=O)C(=O)N[C@@H](CCCCN)C(=O)N[C@@H](Cc1ccc(O)cc1)C(=O)N[C@H](C(=O)O)C(C)C [EBA175_0116] (H-SLIKQNKYV-OH) | 29900
CC[C@H](C)[C@H](NC(=O)[C@@H](NC(=O)[C@H](CC(N)=O)NC(=O)[C@H](CC(=O)O)NC(=O)[C@H](CC(N)=O)NC(=O)CNC(=O)[C@H](CC(N)=O)NC(=O)[C@H](CC(C)C)NC(=O)[C@@H](N)C(C)C)[C@@H](C)O)C(=O)O [EBA175_0437] (H-VLNGNDNTI-OH) | 7310

Same assay, conditions: allele A*0201; fluorescence polarization competition

Compound | IC50 (nM), in vitro HLA binding affinity
DMSNEYSLFI [RH5_461] | Non-Binder

Same assay, conditions: allele A*0201; fluorescence polarization competition; read-out: IC50 (nM), in vitro HLA binding affinity

Compound | IC50 [nM]
CC(C)C[C@H](NC(=O)[C@H](CO)NC(=O)[C@H](Cc1ccccc1)NC(=O)[C@@H](NC(=O)[C@H](CC(C)C)NC(=O)[C@@H](N)CCCCN)[C@@H](C)O)C(=O)N[C@@H](CC(=O)O)C(=O)N[C@@H](Cc1c[nH]cn1)C(=O)N[C@@H](CCCNC(=N)N)C(=O)N[C@H](C(=O)O)C(C)C [RIPR_0035] (H-KLTFSLDHRV-OH) | 8880
CC[C@H](C)[C@H](NC(=O)[C@H](Cc1ccccc1)NC(=O)[C@H](CCCCN)NC(=O)[C@@H](NC(=O)[C@@H](NC(=O)[C@H](CC(=O)O)NC(=O)[C@@H](NC(=O)[C@H](Cc1ccc(O)cc1)NC(=O)[C@@H](NC(=O)[C@@H](N)Cc1ccc(O)cc1)[C@@H](C)CC)[C@@H](C)CC)[C@@H](C)O)[C@@H](C)CC)C(=O)O [RH5_404] (H-YIYIDTIKFI-OH) | 53100
CC[C@H](C)[C@H](NC(=O)[C@H](CC(N)=O)NC(=O)[C@H](CC(=O)O)NC(=O)CNC(=O)[C@@H](NC(=O)[C@@H](N)Cc1ccc(O)cc1)C(C)C)C(=O)N[C@@H](CC(N)=O)C(=O)N[C@@H](CC(N)=O)C(=O)N[C@H](C(=O)O)C(C)C [CYRPA_242] (H-YVGDNINNV-OH) | 1820
CC[C@H](C)[C@H](NC(=O)[C@H](CO)NC(=O)[C@H](CO)NC(=O)[C@H](Cc1ccccc1)NC(=O)[C@H](CC(C)C)NC(=O)[C@@H](N)CC(N)=O)C(=O)N[C@@H](CCC(=O)O)C(=O)N[C@H](C(=O)N[C@H](C(=O)O)C(C)C)[C@@H](C)CC [AMA1_092] (H-NLFSSIEIV-OH) | 1550
CC[C@H](C)[C@H](NC(=O)[C@H](CCSC)NC(=O)[C@@H](N)CO)C(=O)N[C@@H](CCCCN)C(=O)N[C@@H](CO)C(=O)N[C@@H](C)C(=O)N[C@@H](Cc1ccccc1)C(=O)N[C@@H](CC(C)C)C(=O)N1CCC[C@H]1C(=O)N[C@H](C(=O)O)[C@@H](C)O [AMA1_373] (H-SMIKSAFLPT-OH) | 12500
CC[C@H](C)[C@H](NC(=O)[C@H](Cc1ccc(O)cc1)NC(=O)[C@H](CO)NC(=O)[C@H](CO)NC(=O)[C@H](CC(N)=O)NC(=O)[C@H](CC(N)=O)NC(=O)[C@@H](NC(=O)[C@H](CC(C)C)NC(=O)[C@@H](N)CS)[C@@H](C)CC)C(=O)O [AMA1_418] (H-CLINNSSYI-OH) | 3820
CSCC[C@H](NC(=O)[C@H](CCC(N)=O)NC(=O)[C@@H](N)CCCNC(=N)N)C(=O)N[C@@H](CC(C)C)C(=O)N[C@@H](Cc1ccc(O)cc1)C(=O)N[C@@H](CC(N)=O)C(=O)N[C@H](C(=O)N[C@@H](Cc1ccccc1)C(=O)N[C@@H](Cc1ccc(O)cc1)C(=O)N[C@@H](CO)C(=O)O)[C@@H](C)O [RH5_476] (H-RQMLYNTFYS-OH) | 319000
CC(C)C[C@H](NC(=O)[C@H](CCC(=O)O)NC(=O)[C@H](CCCCN)NC(=O)[C@H](Cc1ccccc1)NC(=O)[C@H](Cc1c[nH]cn1)NC(=O)[C@H](Cc1ccc(O)cc1)NC(=O)[C@H](CCC(N)=O)NC(=O)[C@H](CC(C)C)NC(=O)[C@@H](N)Cc1ccccc1)C(=O)O [RH5_144] (H-FLQYHFKEL-OH) | 14600
CC[C@H](C)[C@H](NC(=O)[C@H](Cc1ccccc1)NC(=O)[C@H](CC(C)C)NC(=O)[C@@H](N)CO)C(=O)N[C@H](C(=O)N[C@@H](CO)C(=O)N[C@@H](CC(=O)O)C(=O)N[C@@H](Cc1c[nH]cn1)C(=O)N[C@@H](CC(C)C)C(=O)O)[C@@H](C)O [RH5_467] (H-SLFITSDHL-OH) | 7120
CC[C@H](C)[C@H](NC(=O)[C@H](CO)NC(=O)[C@H](C)NC(=O)[C@H](CC(=O)O)NC(=O)[C@H](CC(=O)O)NC(=O)[C@H](CC(N)=O)NC(=O)[C@H](Cc1ccc(O)cc1)NC(=O)[C@H](CCC(N)=O)NC(=O)[C@@H](N)Cc1ccccc1)C(=O)O [RIPR_0991] (H-FQYNDDASI-OH) | 275
CC(C)C[C@H](NC(=O)CNC(=O)[C@H](CC(=O)O)NC(=O)[C@H](CC(N)=O)NC(=O)[C@@H](NC(=O)[C@H](CC(N)=O)NC(=O)[C@@H](NC(=O)[C@H](CC(N)=O)NC(=O)[C@H](CC(C)C)NC(=O)[C@@H](N)Cc1ccc(O)cc1)[C@@H](C)O)C(C)C)C(=O)O [RH5_86] (H-YLNTNVNDGL-OH) | 2830
CSCC[C@H](NC(=O)[C@H](Cc1ccc(O)cc1)NC(=O)[C@H](CCC(=O)O)NC(=O)[C@@H](NC(=O)[C@H](Cc1c[nH]c2ccccc12)NC(=O)[C@@H]1CCCN1C(=O)[C@H](CC(N)=O)NC(=O)CNC(=O)[C@H](CCSC)NC(=O)[C@@H](N)Cc1ccc(O)cc1)[C@@H](C)O)C(=O)O [AMA1_105] (H-YMGNPWTEYM-OH) | 21400
CC[C@H](C)[C@H](NC(=O)[C@@H](NC(=O)[C@H](C)NC(=O)[C@H](CC(C)C)NC(=O)[C@@H](NC(=O)[C@H](C)N)C(C)C)[C@@H](C)O)C(=O)N[C@@H](CC(C)C)C(=O)N[C@@H](CCSC)C(=O)N[C@H](C(=O)O)C(C)C [AMA1_556] (H-AVLATILMV-OH) | 23600
CC(C)C[C@H](NC(=O)[C@H](Cc1ccccc1)NC(=O)[C@H](Cc1ccccc1)NC(=O)[C@H](Cc1ccc(O)cc1)NC(=O)[C@H](CCC(N)=O)NC(=O)[C@@H](NC(=O)CNC(=O)[C@H](CC(C)C)NC(=O)[C@@H](N)CCCCN)C(C)C)C(=O)O [CYRPA_220] (H-KLGVQYFFL-OH) | 805
CC[C@H](C)[C@H](NC(=O)[C@H](CC(C)C)NC(=O)[C@H](CCCCN)NC(=O)[C@H](Cc1c[nH]cn1)NC(=O)[C@@H](NC(=O)[C@@H](N)Cc1ccc(O)cc1)[C@@H](C)CC)C(=O)N[C@@H](CC(C)C)C(=O)N[C@@H](CO)C(=O)N[C@H](C(=O)O)C(C)C [RH5_363] (H-YIHKLILSV-OH) | 1150
CC[C@H](C)[C@H](NC(=O)[C@H](CC(C)C)NC(=O)[C@H](Cc1c[nH]cn1)NC(=O)[C@H](Cc1c[nH]cn1)NC(=O)[C@H](Cc1ccccc1)NC(=O)[C@@H](NC(=O)[C@@H](N)CC(N)=O)[C@@H](C)CC)C(=O)N[C@@H](Cc1ccc(O)cc1)C(=O)N[C@H](C(=O)O)C(C)C [RH5_492] (H-NIFHHLIYV-OH) | 2290
